Experimental data published in US11413261B2, “Pharmaceutical composition for treating cancer comprising lactate metal salt” (METIMEDI PHARMACEUTICALS CO., LTD, priority 2014, dated 2022).

Columns and labels:
β-catenin = β-catenin mRNA (RT-PCR) and protein (Western blot) expression in colorectal cancer cell lines; assay type: cell-based, human; conditions: HCT-116, HT-29, DLD-1
Protocol: Human colorectal cancer cell lines (HCT-116, HT-29, and DLD-1) were cultured by the same method as that of Example 2-1 except that they were treated with 0 mM, 1.5 mM, or 2.5 mM calcium lactate, and the cultured cancer cells were obtained. Then, expression levels of […] depending on the concentration of calcium lactate were compared at the expression levels of mRNA and protein included therein.
Firstly, in order to compare mRNA expression levels, the total RNA was extracted from each of the cancer cells using an RNeasy mini kit and cDNA was synthesized using a reverse transcriptase. The gene of β-catenin was obtained through reverse transcriptase PCR using the synthesized cDNA as a template and the primers described below.
Then, in order to compare protein expression levels, each of the cancer cells was disrupted and electrophoresis was performed thereto. Then, a Western blot using anti-β-catenin antibody as a primary antibody and an anti-rabbit IgG conjugate as a secondary antibody was conducted (lower part of FIG. 5) and the blots were analyzed with the Image-J program. In this case, actin was used as internal control groups.

[1] = system: LDH-B (lactate dehydrogenase B); experiment: LDH-B protein expression (immunofluorescence); assay type: cell-based, human; conditions: HCT-116 and HT-29; 2.5 mM, 24 hours
Protocol: Human colorectal cancer cell lines (HCT-116 and HT-29) were treated with 2.5 mM calcium lactate and cultured for 24 hours. The cultured cancer cell lines were immobilized with 4% paraformaldehyde and treated with an anti-rabbit LDHB antibody for 15 hours. Then, the cancer cell lines were washed with PBS and treated with a secondary antibody conjugated with biotin and then reacted at room temperature for 2 hours. Then, the cancer cell lines were treated with streptavidine conjugated with FITC to perform fluorescence staining and then photographed with a fluorescence microscope (FIG. 11a-11c). In this case, cancer cell lines cultured under normoxia condition (N-control) or hypoxia condition (H-control) were used as control groups, and a nucleus of each cell was stained using DAPI. Further, the photos were analyzed using the Xenogen In Vivo Imaging System 100 series and Living imaging software (Xenogen).

[2] = Structure and binding energy analysis of metal lactate salts; assay type: physicochemical; conditions: as compared to sodium lactate and potassium lactate (FIG. 1)
Excerpt: Calcium carbonate, sodium carbonate, or potassium carbonate was reacted with lactate so as to obtain metal lactate salt (calcium lactate, sodium lactate, or potassium lactate) solutions, respectively. Each of them was filtered, dried, and pulverized so as to obtain metal lactate salt (calcium lactate, sodium lactate, or potassium lactate) in the form of powder. Then, the structure and binding energy of the obtained metal lactate salts (calcium lactate, sodium lactate, or potassium lactate) were analyzed (FIG. 1).

[3] = system: human melanoma cell lines (SKMEL-02 and SKMEL-28); experiment: Colony-forming ability of melanoma cell lines in solid medium; assay type: cell-based
Protocol: Firstly, human colorectal cancer cell lines (HCT-116, HT-29, and DLD-1) were inoculated into solid mediums including various concentrations (0 mM, 0.5 mM, 1.5 mM, or 2.5 mM) of calcium lactate and cultured for 10 days. After the completion of the culture, the cells were immobilized and stained with hematoxylin. Then, the number of cancer cells formed into colonies was counted (FIG. 23).
Then, using the same method as described above, human melanoma cell lines (SKMEL-02 and SKMEL-28) were inoculated into solid mediums including various concentrations (1 mM, 2.5 mM, or 5 mM) of calcium lactate and culture was performed, and the number of cancer cells formed into colonies were counted (FIGS. 24a and 24b).

MCF-7 cell line = experiment: Cell apoptosis rate by flow cytometry (FITC Annexin V / PI); assay type: cell-based; conditions: 2.5 mM, 24 hours (untreated 9.63%)
Protocol: (§1) Breast cancer cell lines (MCF-7 and MDA-MB231) were cultured for 24 hours with or without treating with 2.5 mM calcium lactate. Each of the breast cancer cell lines were treated with 5 μl of FITC Annexin V and 5 μl of PI and reacted at room temperature for 15 minutes and then, a flow cytometry analysis was conducted thereto using a FACS Calibur (BD Bioscience, USA) to evaluate staining thereof and thus measure a cancer cell apoptosis rate (FIG. 21a-21f).

MDA-MB231 cell line = experiment: as above; assay type: cell-based; conditions: 2.5 mM, 24 hours (untreated 10.17%)
Protocol: as §1

[4] = system: human colorectal cancer cell lines (HT-29 and HCT-116); experiment: Colony-forming ability, anticancer drug in combination with calcium lactate (6-well plates); assay type: cell-based; conditions: 2.5 mM calcium lactate alone, vs control
Protocol: Human colorectal cancer cell lines (HT-29 and HCT-116) with the cell number of 1×10^3 cells were seeded into an RPMI1640 medium in each of 6-well plates. After one day, the medium was replaced with fresh medium and the cells were treated with 2.5 mM calcium lactate or 1 μM, 2.5 μM, and 5 μM Imatinib alone or treated with various concentrations (1 μM, 2.5 μM, and 5 μM) of Imatinib in combination with 2.5 mM calcium lactate. Then, the colony-forming abilities of the cells were compared. In this case, human colorectal cancer cell lines (HT-29 and HCT-116) untreated with any drug were used as control groups (FIGS. 38a, 38b, 39a and 39b).
Human colorectal cancer cell lines (HT-29 and HCT-116) with the cell number of 1×10^3 cells were seeded into an RPMI1640 medium in each of 6-well plates. After one day, the medium was replaced with fresh medium and the cells were treated with 2.5 mM calcium lactate or 2.5 μM, 5 μM, and 10 μM 5-FU alone or treated with various concentrations (2.5 μM, 5 μM, and 10 μM) of 5-FU in combination with 2.5 mM calcium lactate. Then, the colony-forming abilities of the cells were compared. In this case, human colorectal cancer cell lines (HT-29 and HCT-116) untreated with any drug were used as control groups (FIGS. 40a, 40 b, 41a and 41b).

[5] = system: human colorectal cancer stem cell line; experiment: Conformational change of sphere of colorectal cancer stem cell line; assay type: cell-based; conditions: vs DMSO control
Protocol: A human colorectal cancer stem cell line was inoculated into a stem cell culture medium (medium including 1% penicillin/streptomycin and 50 times B27 and including a DMEM medium and an F12 medium mixed at 1:1) and cultured at 37° C. with 5% CO2. The cultured colorectal cancer stem cell line was treated with calcium lactate and then, it was checked whether or not there is the conformational change of a sphere formed by the stem cells (FIG. 22). In this case, a cancer cell treated with DMSO instead of calcium lactate was used as a control group.

Which “mRNA expression levels of β-catenin” value (β-catenin; 0, 1.5, 2.5 mM) does the source give for `CC(O)C(=O)[O-].CC(O)C(=O)[O-].[Ca+2]` (centres unmarked) [calcium lactate] here?
The value was “no difference”.

And the “protein expression levels of β-catenin” value (β-catenin; with increasing concentration (0, 1.5, 2.5 mM))?
The value was “decreased”.

And the “protein expression levels of LDH-B” value [1]?
Its value is “sharply increased”.

And the binding energy [2]?
The binding energy was “relatively high binding energy”.

And the number of colonies ([3]; SKMEL-02, 5 mM (untreated 105 to 168))?
The number of colonies was “about 49 colonies”.

And the number of colonies ([3]; SKMEL-02 and SKMEL-28, with increasing concentration (1, 2.5, 5 mM))?
Its number of colonies is “decreased”.

What about the number of colonies ([3]; SKMEL-28, 5 mM) of the same compound?
Its number of colonies is “colony was not formed”.

What about the cell apoptosis rate (MCF-7 cell line) of the same compound?
Its cell apoptosis rate is 33.8%.

What about the cell apoptosis rate (MDA-MB231 cell line) of the same compound?
Its cell apoptosis rate is 13.05%.

And the colony-forming ability [4]?
The colony-forming ability was “suppressed”.

What about the “conformation of the sphere” value [5] of the same compound?
Its value is “destructed”.
